Test results as given in PubChem BioAssay AID268 (DTP/NCI, 2004).
Values joined by “and” are separate entries in the source; they are usually repeats but may differ in a detail not shown here. Identical values can stand only once.

System: CD2F1 mice, P1798 lymphosarcoma sc, tumor weight T/C
Assay: NCI In Vivo Anticancer Drug Screen. Data for tumor model P1798 Lymphosarcoma (subcutaneous) in CD2F1 (CDF1) mice
Conditions: higher = larger tumour
Description: The antitumor activity of compounds was measured in mice bearing transplantable tumors. Survival or tumor size were measured and the results are expressed as the measurement made in the treated group (T) divided by the measurement made in the vehicle treated control group (C). The tumor model used in this assay is P1798 Lymphosarcoma (subcutaneous) in CD2F1 (CDF1) mice

[1] = endpoint: mean tumor weight, dose: 30.0 mg/kg/injection, schedule: Q01DX010 (ip), vehicle: saline
[2] = endpoint: mean tumor weight, dose: 120.0 mg/kg/injection, schedule: Q01DX010 (ip), vehicle: saline
[3] = endpoint: mean tumor weight, dose: 12.5 mg/kg/injection, schedule: Q01DX010 (sc), vehicle: steriod suspending solution
[4] = endpoint: mean tumor weight, dose: 50.0 mg/kg/injection, schedule: Q01DX010 (sc), vehicle: steriod suspending solution
[5] = endpoint: mean tumor weight, dose: 12.5 mg/kg/injection, schedule: Q01DX005 (sc), vehicle: steriod suspending solution
[6] = endpoint: mean tumor weight, dose: 25.0 mg/kg/injection, schedule: Q01DX005 (sc), vehicle: steriod suspending solution
[7] = endpoint: mean tumor weight, dose: 25.0 mg/kg/injection, schedule: Q02DX010 (sc), vehicle: steriod suspending solution
[8] = endpoint: mean tumor weight, dose: 6.25 mg/kg/injection, schedule: Q01DX010 (ip), vehicle: saline
[9] = endpoint: mean tumor weight, dose: 12.5 mg/kg/injection, schedule: Q01DX010 (ip), vehicle: saline
[10] = endpoint: mean tumor weight, dose: 25.0 mg/kg/injection, schedule: Q01DX010 (ip), vehicle: saline
[11] = endpoint: mean tumor weight, dose: 50.0 mg/kg/injection, schedule: Q01DX010 (ip), vehicle: saline

## CCOC(C)C(/C=N/NC(N)=S)=NNC(N)=S (configuration not stated)
[1]
  T/C: 99 % of control
endpoint: mean tumor weight, dose: 60.0 mg/kg/injection, schedule: Q01DX010 (ip), vehicle: saline
  T/C: 100 % of control
[2]
  T/C: 93 % of control

## C[C@]12CC[C@@H]3c4ccc(O)cc4CC[C@H]3[C@@H]1CC(=O)[C@@H]2O
[3]
  T/C: 94 % of control and 89 % of control
endpoint: mean tumor weight, dose: 25.0 mg/kg/injection, schedule: Q01DX010 (sc), vehicle: steriod suspending solution
  T/C: 92 % of control and 96 % of control
[4]
  T/C: 78 % of control and 86 % of control

## C[C@]12C=CC(=O)C=C1CC[C@@H]1[C@@H]2[C@@H](O)C[C@@]2(C)[C@H]1CC[C@]2(O)C(=O)CO
[5]
  T/C: 41 % of control
[3]
  T/C: 42 % of control and 46 % of control
[6]
  T/C: 48 % of control
[7]
  T/C: 100 % of control
endpoint: mean tumor weight, dose: 25.0 mg/kg/injection, schedule: Q03DX004 (sc), vehicle: steriod suspending solution
  T/C: 87 % of control
endpoint: mean tumor weight, dose: 50.0 mg/kg/injection, schedule: Q01DX005 (sc), vehicle: steriod suspending solution
  T/C: 22 % of control
endpoint: mean tumor weight, dose: 50.0 mg/kg/injection, schedule: Q02DX010 (sc), vehicle: steriod suspending solution
  T/C: 100 % of control
endpoint: mean tumor weight, dose: 50.0 mg/kg/injection, schedule: Q03DX004 (sc), vehicle: steriod suspending solution
  T/C: 92 % of control
endpoint: mean tumor weight, dose: 100.0 mg/kg/injection, schedule: Q01DX005 (sc), vehicle: steriod suspending solution
  T/C: 20 % of control
endpoint: mean tumor weight, dose: 100.0 mg/kg/injection, schedule: Q02DX010 (sc), vehicle: steriod suspending solution
  T/C: 96 % of control
endpoint: mean tumor weight, dose: 100.0 mg/kg/injection, schedule: Q03DX004 (sc), vehicle: steriod suspending solution
  T/C: 100 % of control

## COc1ccc2[nH]c3c(C)c4ccncc4c(C)c3c2c1
endpoint: mean tumor weight, dose: 0.39 mg/kg/injection, schedule: Q01DX010 (ip), vehicle: saline
  T/C: 104 % of control
endpoint: mean tumor weight, dose: 0.78 mg/kg/injection, schedule: Q01DX010 (ip), vehicle: saline
  T/C: 111 % of control
endpoint: mean tumor weight, dose: 1.56 mg/kg/injection, schedule: Q01DX010 (ip), vehicle: saline
  T/C: 73 % of control
[8]
  T/C: 61 % of control
[9]
  T/C: 45 % of control
[10]
  T/C: 40 % of control and 42 % of control

## Cc1cc(N(CCCl)CCCl)ccc1N=Nc1ccccc1C(=O)O
endpoint: mean tumor weight, dose: 5.0 mg/kg/injection, schedule: Q01DX010 (ip), vehicle: saline
  T/C: 72 % of control and 79 % of control
endpoint: mean tumor weight, dose: 10.0 mg/kg/injection, schedule: Q01DX010 (ip), vehicle: saline
  T/C: 16 % of control and 23 % of control
endpoint: mean tumor weight, dose: 20.0 mg/kg/injection, schedule: Q01DX010 (ip), vehicle: saline
  T/C: 10 % of control

## C[C@@H]1C[C@H]2[C@@H]3CCC4=CC(=O)C=C[C@]4(C)[C@@]3(F)[C@@H](O)C[C@]2(C)[C@@]1(O)C(=O)CO
endpoint: mean tumor weight (est.), dose: 3.13 mg/kg/injection, schedule: Q01DX016 (sc), vehicle: saline
  T/C: 55 % of control
endpoint: mean tumor weight (est.), dose: 6.25 mg/kg/injection, schedule: Q01DX016 (sc), vehicle: saline
  T/C: 7 % of control
endpoint: mean tumor weight, dose: 3.13 mg/kg/injection, schedule: Q01DX005 (sc), vehicle: steriod suspending solution
  T/C: 33 % of control
endpoint: mean tumor weight, dose: 3.13 mg/kg/injection, schedule: Q01DX010 (sc), vehicle: steriod suspending solution
  T/C: 5 % of control
endpoint: mean tumor weight, dose: 6.25 mg/kg/injection, schedule: Q01DX005 (sc), vehicle: steriod suspending solution
  T/C: 8 % of control
endpoint: mean tumor weight, dose: 6.25 mg/kg/injection, schedule: Q02DX010 (sc), vehicle: steriod suspending solution
  T/C: 116 % of control
[5]
  T/C: 4 % of control
endpoint: mean tumor weight, dose: 12.5 mg/kg/injection, schedule: Q02DX010 (sc), vehicle: steriod suspending solution
  T/C: 98 % of control
[6]
  T/C: 1 % of control
[7]
  T/C: 56 % of control

## Clc1ncnc2nc[nH]c12
endpoint: mean tumor weight, dose: 7.5 mg/kg/injection, schedule: Q01DX010 (ip), vehicle: saline
  T/C: 91 % of control
endpoint: mean tumor weight, dose: 15.0 mg/kg/injection, schedule: Q01DX010 (ip), vehicle: saline
  T/C: 84 % of control and 85 % of control
[1]
  T/C: 102 % of control
[2]
  T/C: 91 % of control

## CC(=O)[C@H]1CC[C@H]2[C@@H]3C[C@H](C)C4=CC(=O)CC[C@]4(C)[C@@]3(F)[C@@H](O)C[C@]12C
[4]
  T/C: 11 % of control
endpoint: mean tumor weight, dose: 100.0 mg/kg/injection, schedule: Q01DX010 (sc), vehicle: steriod suspending solution
  T/C: 4 % of control
endpoint: mean tumor weight, dose: 200.0 mg/kg/injection, schedule: Q01DX010 (sc), vehicle: steriod suspending solution
  T/C: 2 % of control
endpoint: mean tumor weight, dose: 400.0 mg/kg/injection, schedule: Q01DX010 (sc), vehicle: steriod suspending solution
  T/C: 2 % of control

## CC(=O)NCCCCCCCCCCNC(C)=O
[11]
  T/C: 96 % of control
endpoint: mean tumor weight, dose: 100.0 mg/kg/injection, schedule: Q01DX010 (ip), vehicle: saline
  T/C: 113 % of control
endpoint: mean tumor weight, dose: 200.0 mg/kg/injection, schedule: Q01DX010 (ip), vehicle: saline
  T/C: 93 % of control
endpoint: mean tumor weight, dose: 400.0 mg/kg/injection, schedule: Q01DX010 (ip), vehicle: saline
  T/C: 76 % of control

## NCCCCCCNCCCCCCN
[8]
  T/C: 90 % of control
[9]
  T/C: 89 % of control
[10]
  T/C: 100 % of control and 78 % of control
[11]
  T/C: 50 % of control and 70 % of control
